Assay results taken from US9326506B2, “Preparation method, agricultural composition and applications of natural brassinolide analogs” (CHENGDU NEWSUN CROPSCIENCE CO., LTD, priority 2012, dated 2016).

System: rice
Experiment: Low temperature assay on rice seedlings
Assay type: in vivo
Experimental: According to a low temperature assay, we measured parameters including plant height, number of leaf, area of leaf, number of tiller, weight of root at low temperature to completely determine effects of the natural brassinolide analogues on the resistance to low temperature of a plant.
The natural brassinolide analogues, BR1, BR2, BR3, BR4, BR5 and BR6, used herein, were those prepared by the method of Example 1. Respectively the analogues were dissolved into 95% (V/V) ethanol solution, and then diluted with pure water to 1 mg/L, 0.1 mg/L, 0.01 mg/L, 0.001 mg/L and 0.0001 mg/L. In addition, pure water was used as a control.
After rice seeds were disinfected by using 5% sodium hypochlorite solution treatment, they were rinsed with distilled water until their pH>7, placed into a petri dish in a dark incubator, and cultured by using water at 30° C.±2° C. for 9 days. Then respectively the nine-day-old etiolated seedlings of rice were immersed in the above solutions containing different concentrations of the natural brassinolide analogues or pure water, and cultured at the temperature of 1° C., 2° C., 3° C., 4° C. and 5° C. for 24 hr. The parameters including plant height, area of leaf and weight of root after 3, 6, 9 and 12 days and number of leaf and number of tiller after 12 days were measured.

`C=C(C(C)C)[C@@H](O)[C@H](O)[C@@H](C)[C@H]1CCC2C3COC(=O)C4C[C@H](O)[C@H](O)C[C@]4(C)C3CC[C@@]21C` (stereo partly drawn) [BR3] was tested, and the Area of leaf (0.0001 mg/l, 1 °C, 3 days) was 9.8 cm^2, the Height (0.0001 mg/l, 1 °C, 3 days) was 6.8 cm and the Weight of root (0.0001 mg/l, 1 °C, 3 days) was 2.8 g. It also gave an Area of leaf (0.0001 mg/l, 1 °C, 6 days) of 11 cm^2, a Height (0.0001 mg/l, 1 °C, 6 days) of 6.9 cm and a Weight of root (0.0001 mg/l, 1 °C, 6 days) of 3 g. It also gave an Area of leaf (0.0001 mg/l, 1 °C, 9 days) of 12.2 cm^2, a Height (0.0001 mg/l, 1 °C, 9 days) of 7.1 cm and a Weight of root (0.0001 mg/l, 1 °C, 9 days) of 3.4 g. It also gave an Area of leaf (0.0001 mg/l, 1 °C, 12 days) of 13.1 cm^2, a Height (0.0001 mg/l, 1 °C, 12 days) of 7.2 cm and a Number of leaf (0.0001 mg/l, 1 °C, 12 days) of 3. The Number of tiller (0.0001 mg/l, 1 °C, 12 days) was 3, the Weight of root (0.0001 mg/l, 1 °C, 12 days) was 3.9 g and the Area of leaf (0.0001 mg/l, 2 °C, 3 days) was 10 cm^2. The Height (0.0001 mg/l, 2 °C, 3 days) was 6.8 cm, the Weight of root (0.0001 mg/l, 2 °C, 3 days) was 2.8 g and the Area of leaf (0.0001 mg/l, 2 °C, 6 days) was 11.7 cm^2. For the same compound, the Height (0.0001 mg/l, 2 °C, 6 days) was 7 cm, the Weight of root (0.0001 mg/l, 2 °C, 6 days) was 3.0 g and the Area of leaf (0.0001 mg/l, 2 °C, 9 days) was 12.1 cm^2. The Height (0.0001 mg/l, 2 °C, 9 days) was 7.1 cm, the Weight of root (0.0001 mg/l, 2 °C, 9 days) was 3.2 g and the Area of leaf (0.0001 mg/l, 2 °C, 12 days) was 13 cm^2. For the same compound, the Height (0.0001 mg/l, 2 °C, 12 days) was 7.4 cm, the Number of leaf (0.0001 mg/l, 2 °C, 12 days) was 3 and the Number of tiller (0.0001 mg/l, 2 °C, 12 days) was 3. For the same compound, the Weight of root (0.0001 mg/l, 2 °C, 12 days) was 3.9 g, the Area of leaf (0.0001 mg/l, 3 °C, 3 days) was 10 cm^2 and the Height (0.0001 mg/l, 3 °C, 3 days) was 6.9 cm. The Weight of root (0.0001 mg/l, 3 °C, 3 days) was 2.5 g, the Area of leaf (0.0001 mg/l, 3 °C, 6 days) was 11.8 cm^2 and the Height (0.0001 mg/l, 3 °C, 6 days) was 7.1 cm. The Weight of root (0.0001 mg/l, 3 °C, 6 days) was 2.6 g, the Area of leaf (0.0001 mg/l, 3 °C, 9 days) was 12.1 cm^2 and the Height (0.0001 mg/l, 3 °C, 9 days) was 7.4 cm. The Weight of root (0.0001 mg/l, 3 °C, 9 days) was 2.9 g, the Area of leaf (0.0001 mg/l, 3 °C, 12 days) was 13.2 cm^2 and the Height (0.0001 mg/l, 3 °C, 12 days) was 7.5 cm. The Number of leaf (0.0001 mg/l, 3 °C, 12 days) was 3, the Number of tiller (0.0001 mg/l, 3 °C, 12 days) was 2 and the Weight of root (0.0001 mg/l, 3 °C, 12 days) was 2.9 g. The Area of leaf (0.0001 mg/l, 4 °C, 3 days) was 10 cm^2, the Height (0.0001 mg/l, 4 °C, 3 days) was 6.9 cm and the Weight of root (0.0001 mg/l, 4 °C, 3 days) was 2.5 g. The Area of leaf (0.0001 mg/l, 4 °C, 6 days) was 11.5 cm^2, the Height (0.0001 mg/l, 4 °C, 6 days) was 7.3 cm and the Weight of root (0.0001 mg/l, 4 °C, 6 days) was 2.6 g. It also gave an Area of leaf (0.0001 mg/l, 4 °C, 9 days) of 13 cm^2, a Height (0.0001 mg/l, 4 °C, 9 days) of 7.5 cm and a Weight of root (0.0001 mg/l, 4 °C, 9 days) of 2.9 g. For the same compound, the Area of leaf (0.0001 mg/l, 4 °C, 12 days) was 13.4 cm^2, the Height (0.0001 mg/l, 4 °C, 12 days) was 7.5 cm and the Number of leaf (0.0001 mg/l, 4 °C, 12 days) was 3. It also gave a Number of tiller (0.0001 mg/l, 4 °C, 12 days) of 2, a Weight of root (0.0001 mg/l, 4 °C, 12 days) of 2.9 g and an Area of leaf (0.0001 mg/l, 5 °C, 3 days) of 10.2 cm^2. It also gave a Height (0.0001 mg/l, 5 °C, 3 days) of 7.0 cm, a Weight of root (0.0001 mg/l, 5 °C, 3 days) of 2.5 g and an Area of leaf (0.0001 mg/l, 5 °C, 6 days) of 12 cm^2. For the same compound, the Height (0.0001 mg/l, 5 °C, 6 days) was 7.4 cm, the Weight of root (0.0001 mg/l, 5 °C, 6 days) was 2.5 g and the Area of leaf (0.0001 mg/l, 5 °C, 9 days) was 13.4 cm^2. For the same compound, the Height (0.0001 mg/l, 5 °C, 9 days) was 7.5 cm, the Weight of root (0.0001 mg/l, 5 °C, 9 days) was 2.9 g and the Area of leaf (0.0001 mg/l, 5 °C, 12 days) was 14 cm^2. For the same compound, the Height (0.0001 mg/l, 5 °C, 12 days) was 7.7 cm, the Number of leaf (0.0001 mg/l, 5 °C, 12 days) was 3 and the Number of tiller (0.0001 mg/l, 5 °C, 12 days) was 2. It also gave a Weight of root (0.0001 mg/l, 5 °C, 12 days) of 3.0 g, an Area of leaf (0.001 mg/l, 1 °C, 3 days) of 10 cm^2 and a Height (0.001 mg/l, 1 °C, 3 days) of 6.9 cm. It also gave a Weight of root (0.001 mg/l, 1 °C, 3 days) of 2.8 g, an Area of leaf (0.001 mg/l, 1 °C, 6 days) of 11.3 cm^2 and a Height (0.001 mg/l, 1 °C, 6 days) of 7.1 cm. It also gave a Weight of root (0.001 mg/l, 1 °C, 6 days) of 3.1 g, an Area of leaf (0.001 mg/l, 1 °C, 9 days) of 12.6 cm^2 and a Height (0.001 mg/l, 1 °C, 9 days) of 7.1 cm. For the same compound, the Weight of root (0.001 mg/l, 1 °C, 9 days) was 3.2 g, the Area of leaf (0.001 mg/l, 1 °C, 12 days) was 13 cm^2 and the Height (0.001 mg/l, 1 °C, 12 days) was 7.3 cm. The Number of leaf (0.001 mg/l, 1 °C, 12 days) was 3, the Number of tiller (0.001 mg/l, 1 °C, 12 days) was 3 and the Weight of root (0.001 mg/l, 1 °C, 12 days) was 3.9 g. The Area of leaf (0.001 mg/l, 2 °C, 3 days) was 9.8 cm^2, the Height (0.001 mg/l, 2 °C, 3 days) was 6.9 cm and the Weight of root (0.001 mg/l, 2 °C, 3 days) was 2.8 g.
